{"source": "patent US20260209214A1", "about": "“LSD1 MODULATORS” (RECURSION PHARMACEUTICALS, INC., priority 2022, published 2026)", "target": "Recombinant human LSD1 (Homo sapiens, UniProt O60341)", "assay": "LSD1 inhibition assay (HTRF LSD1 Histone H3K4 mono-demethylation assay, me1->me0)", "type": "biochemical", "details": "20 nM recombinant human LSD1, 95 nM H3K4(me1) biotinylated peptide, 15 min preincubation, 60 min at 25° C., read-out: LSD1 inhibition IC50 (nM range)", "procedure": "LSD1 biochemical activity was measured using the HTRF® LSD1 Histone H3K4 mono-demethylation assay (me1->me0). Briefly, the enzymatic buffer was prepared by addition of 50 mM Tris-HCl (Sigma cat #T2663-IL), 50 mM NaCl (ThermoFisher cat #AM9759) and 0.01% Tween 20 (ThermoFisher cat #J20605.AP) in distilled water (final pH 8.5). This buffer was supplemented with 10 μM FAD (Fisher Scientific cat #11411838) and 1 mM DTT (Sigma cat #D0632). For the assay, H3K4(me1) biotinylated peptide substrate (Anaspec, cat #64355) was added to provide a final assay concentration of 95 nM. The streptavidin-XL665 (Cisbio cat #610SAXLA) and H3K4 me0-Eu(K) antibody-cryptate (Cisbio, cat #61 KAOKAD) detection reagents were mixed according to the manufacturer's instructions. Test compounds were diluted in DMSO in a series of 10 semi-log step doses; 10 nL of each compound dose were dispensed in 384 well plates. Recombinant human LSD1 was diluted into enzymatic buffer to provide a final assay concentration of 20 nM and added to the tested compounds for 15 minutes. The reaction was started by addition of the substrate and incubated at 25° C. for 60 minutes. The detection reagents were added, and the plate was incubated in the dark for 90 minutes. Fluorescence was measured on an Envision 2103 plate reader with optical setup for […] in the HTRF mode. The ratio of acceptor and donor emission signals was calculated for each well. Percent inhibition values were calculated from the HTRF ratios at different doses and fitted to a 4-parameter logistic curve to determine IC50 values. […]", "note": "Structures can show the parent of a compound that is named as a salt."}
{"smiles": "N#Cc1ccc(-c2cc(CC3CNCCO3)ccc2N2CCn3nc(C4CC4)cc3C2)cc1F", "note": "(stereo not shown) [Example 97, 2′-{2-cyclopropyl-4H,5H,6H,7H-pyrazolo[1,5-a]pyrazin-5-yl}-3-fluoro-5′-[(morpholin-2-yl)methyl]-[1,1′-biphenyl]-4-carbonitrile]", "values": [{"measurement": "IC50", "value": "> 1000", "unit": "nM"}]}
{"smiles": "COc1ccc(-c2c(C)cc(CC3CNCCO3)cc2-c2ccc(C#N)c(F)c2)cn1", "note": "(stereo not shown) [Example 85, 3-fluoro-2′-(6-methoxypyridin-3-yl)-3′-methyl-5′-[(morpholin-2-yl)methyl]-[1,1′-biphenyl]-4-carbonitrile]", "values": [{"measurement": "IC50", "value": "100 to 1000", "unit": "nM"}]}
{"smiles": "N#Cc1ccc(-c2cccc(CN3C4CCC3CNC4)c2C2CC2)cc1F", "note": "[Example 265, 2'-cyclopropyl-3'-({3,8-diazabicyclo[3.2.1]octan-8-yl}methyl)-3-fluoro-[1,1'-biphenyl]-4-carbonitrile]", "values": [{"measurement": "IC50", "value": "25 to 100", "unit": "nM"}]}
{"smiles": "Cc1ccncc1-c1ccc(CC2CNCCO2)cc1-c1ccc(C#N)c(F)c1", "note": "(stereo not shown) [Example 124, 3-fluoro-2′-(4-methylpyridin-3-yl)-5′-[(morpholin-2-yl)methyl]-[1,1′-biphenyl]-4-carbonitrile]", "values": [{"measurement": "IC50", "value": "100 to 1000", "unit": "nM"}]}
{"smiles": "CN[C@H]1CCCCN(Cc2cccc(-c3ccc(C#N)c(F)c3)c2C2CC2)C1", "note": "[Example 272, 2'-cyclopropyl-3-fluoro-3'-{[(3S)-(methylamino)azepan-1-yl]methyl}-[1,1'-biphenyl]-4-carbonitrile]", "values": [{"measurement": "IC50", "value": "100 to 1000", "unit": "nM"}]}
{"smiles": "CCC1(O)CCN(c2ccc(CC3CNCCO3)cc2-c2ccc(C#N)c(F)c2)CC1", "note": "(stereo not shown) [Example 33, 2′-(4-ethyl-4-hydroxypiperidin-1-yl)-3-fluoro-5′-[(morpholin-2-yl)methyl]-[1,1′-biphenyl]-4-carbonitrile]", "values": [{"measurement": "IC50", "value": "25 to 100", "unit": "nM"}]}
{"smiles": "COCCc1ccc(-c2ccc(CC3CNCCO3)cc2-c2ccc(C#N)c(F)c2)c(F)c1", "note": "(stereo not shown) [Example 83, 3-fluoro-2′-[2-fluoro-4-(2-methoxyethyl)phenyl]-5′-[(morpholin-2-yl)methyl]-[1,1′-biphenyl]-4-carbonitrile]", "values": [{"measurement": "IC50", "value": "25 to 100", "unit": "nM"}]}
{"smiles": "N#Cc1ccc(-c2cc(CC3CNCCO3)ccc2N2CCC(C3CCCO3)CC2)cc1F", "note": "(stereo not shown) [Example 73, 3-fluoro-5′-[(morpholin-2-yl)methyl]-2′-[4-(oxolan-2-yl)piperidin-1-yl]-[1,1′-biphenyl]-4-carbonitrile]", "values": [{"measurement": "IC50", "value": "25 to 100", "unit": "nM"}]}
{"smiles": "C[C@@]1(N)CCN(Cc2cccc(-c3ccc(C#N)c(F)c3)c2C2CC2)C1", "note": "[Example 349, 3'-{[(3R)-3-amino-3-methylpyrrolidin-1-yl]methyl}-2'-cyclopropyl-3-fluoro-[1,1'-biphenyl]-4-carbonitrile]", "values": [{"measurement": "IC50", "value": "100 to 1000", "unit": "nM"}]}
{"smiles": "Cc1cnsc1-c1c(CC2CNCCO2)cccc1-c1ccc(C#N)c(F)c1", "note": "(stereo not shown) [Example 45, 3-fluoro-2′-(4-methyl-1,2-thiazol-5-yl)-3′-[(morpholin-2-yl)methyl]-[1,1′-biphenyl]-4-carbonitrile]", "values": [{"measurement": "IC50", "value": "100 to 1000", "unit": "nM"}]}
{"smiles": "Cn1cc(-c2c(CC3CNCCO3)cccc2-c2ccc(C#N)c(F)c2)cn1", "note": "(stereo not shown) [Example 153, 3-fluoro-2′-(1-methyl-1H-pyrazol-4-yl)-3′-[(morpholin-2-yl)methyl]-[1,1′-biphenyl]-4-carbonitrile]", "values": [{"measurement": "IC50", "value": "25 to 100", "unit": "nM"}]}
{"smiles": "Cc1sncc1-c1c(CC2CNCCO2)cccc1-c1ccc(C#N)c(F)c1", "note": "[Example 113, (2R,3R)-2,3-dihydroxybutanedioic acid; 2-fluoro-4-[2-(5-methylisothiazol-4-yl)-3-(morpholin-2-ylmethyl)phenyl]benzonitrile]", "values": [{"measurement": "IC50", "value": "100 to 1000", "unit": "nM"}]}
{"smiles": "N#Cc1ccc(-c2cccc(CC3CNCCO3)c2N2CCC2)cc1F", "note": "(stereo not shown) [Example 21, 2′-(azetidin-1-yl)-3-fluoro-3′-[(morpholin-2-yl)methyl]-[1,1′-biphenyl]-4-carbonitrile]", "values": [{"measurement": "IC50", "value": "100 to 1000", "unit": "nM"}]}
{"smiles": "Cc1ncoc1-c1c(CC2CNCCO2)cccc1-c1ccc(C#N)c(F)c1", "note": "(stereo not shown) [Example 51, 3-fluoro-2′-(4-methyl-1,3-oxazol-5-yl)-3′-[(morpholin-2-yl)methyl]-[1,1′-biphenyl]-4-carbonitrile]", "values": [{"measurement": "IC50", "value": "25 to 100", "unit": "nM"}]}
{"smiles": "N#Cc1ccc(-c2cccc(CC3CNCCO3)c2C#N)cc1F", "note": "(stereo not shown) [Example 84, 3′-fluoro-3-[(morpholin-2-yl)methyl]-[1,1′-biphenyl]-2,4′-dicarbonitrile]", "values": [{"measurement": "IC50", "value": "> 1000", "unit": "nM"}]}
{"smiles": "N#Cc1ccc(-c2ccc(F)c(CC3CNCCO3)c2-c2cncs2)cc1F", "note": "(stereo not shown) [Example 25, 3,4′-difluoro-3′-[(morpholin-2-yl)methyl]-2′-(1,3-thiazol-5-yl)-[1,1′-biphenyl]-4-carbonitrile]", "values": [{"measurement": "IC50", "value": "10 to 25", "unit": "nM"}]}
{"smiles": "Cc1cc(CNCC2CCN(C)C2)c(Cl)c(-c2ccc(C#N)c(F)c2)c1", "note": "(stereo not shown) [Example 226, 2'-chloro-3-fluoro-5'-methyl-3'-({[(1-methylpyrrolidin-3-yl)methyl]amino}methyl)-[1,1'-biphenyl]-4-carbonitrile]", "values": [{"measurement": "IC50", "value": "100 to 1000", "unit": "nM"}]}
{"smiles": "N#Cc1ccc(-c2cccc(CN3CCC4(CNC4)C3)c2Cl)cc1F", "note": "[Example 341, 2'-chloro-3'-({2,6-diazaspiro[3.4]octan-6-yl}methyl)-3-fluoro-[1,1'-biphenyl]-4-carbonitrile]", "values": [{"measurement": "IC50", "value": "100 to 1000", "unit": "nM"}]}
{"smiles": "COc1ccc(-c2ccc(CC3CNCCO3)cc2-c2ccc(C#N)c(F)c2)nc1", "note": "(stereo not shown) [Example 133, 3-fluoro-2′-(5-methoxypyridin-2-yl)-5′-[(morpholin-2-yl)methyl]-[1,1′-biphenyl]-4-carbonitrile]", "values": [{"measurement": "IC50", "value": "100 to 1000", "unit": "nM"}]}
{"smiles": "COC1(C)CCN(c2ccc(CC3CNCCO3)cc2-c2ccc(C#N)c(F)c2)CC1", "note": "(stereo not shown) [Example 61, 3-fluoro-2′-(4-methoxy-4-methylpiperidin-1-yl)-5′-[(morpholin-2-yl)methyl]-[1,1′-biphenyl]-4-carbonitrile]", "values": [{"measurement": "IC50", "value": "100 to 1000", "unit": "nM"}]}
{"smiles": "N#Cc1ccc(-c2cccc(CC3CCNC3)c2-c2ccns2)cc1F", "note": "(stereo not shown) [Example 109, 2-fluoro-4-[2-isothiazol-5-yl-3-(pyrrolidin-3-ylmethyl)phenyl]benzonitrile; hydrochloride]", "values": [{"measurement": "IC50", "value": "< 10", "unit": "nM"}]}
{"smiles": "N#Cc1ccc(-c2cccc(CN3CCCC(N)C3)c2Cl)cc1F", "note": "(stereo not shown) [Example 332, 3'-[(3-aminopiperidin-1-yl)methyl]-2'-chloro-3-fluoro-[1,1'-biphenyl]-4-carbonitrile]", "values": [{"measurement": "IC50", "value": "100 to 1000", "unit": "nM"}]}
{"smiles": "N#Cc1ccc(-c2cc(CC3CNCCO3)ccc2N2CCC(O)(C3CC3)CC2)cc1F", "note": "(stereo not shown) [Example 60, 2′-(4-cyclopropyl-4-hydroxypiperidin-1-yl)-3-fluoro-5′-[(morpholin-2-yl)methyl]-[1,1′-biphenyl]-4-carbonitrile]", "values": [{"measurement": "IC50", "value": "25 to 100", "unit": "nM"}]}
{"smiles": "Cc1nocc1-c1c(CC2CNCCO2)cccc1-c1ccc(C#N)c(F)c1", "note": "(stereo not shown) [Example 35, 3-fluoro-2′-(3-methyl-1,2-oxazol-4-yl)-3′-[(morpholin-2-yl)methyl]-[1,1′-biphenyl]-4-carbonitrile]", "values": [{"measurement": "IC50", "value": "25 to 100", "unit": "nM"}]}
{"smiles": "N#Cc1ccc(-c2cccc(C[C@@H]3CNCCO3)c2-c2ccno2)cc1", "note": "(single isomer, unassigned) [Example 7]", "values": [{"measurement": "IC50", "value": "10 to 25", "unit": "nM"}]}
{"smiles": "N#Cc1ccc(-c2cccc(CN3C[C@H](N)C[C@H](F)C3)c2Cl)cc1F", "note": "[Example 285, 3'-{[(3R,5S)-3-amino-5-fluoropiperidin-1-yl]methyl}-2'-chloro-3-fluoro-[1,1'-biphenyl]-4-carbonitrile]", "values": [{"measurement": "IC50", "value": "100 to 1000", "unit": "nM"}]}
{"smiles": "CN[C@H]1C[C@H]2CC[C@@H]1N2Cc1cccc(-c2ccc(C#N)cc2)c1-c1ccns1", "note": "(single isomer, unassigned) [Example 182]", "values": [{"measurement": "IC50", "value": "< 10", "unit": "nM"}]}
{"smiles": "N#Cc1ccc(-c2cc(CN3[C@@H]4CC[C@H]3[C@@H](N)C4)ccc2OC[C@@H]2CCCOC2)cc1F", "note": "(racemic) [Example 231, 5'-{[(1S,2S,4R)-2-amino-7-azabicyclo[2.2.1]heptan-7-yl]methyl}-3-fluoro-2'-{[(3R)-oxan-3-yl]methoxy}-[1,1'-biphenyl]-4-carbonitrile]", "values": [{"measurement": "IC50", "value": "10 to 25", "unit": "nM"}]}
